Measurements as given in PubChem BioAssay (NCI).
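Briefly, cells in 96-well plates were exposed to five compound concentrations for 48 h, and endpoints were estimated by linear interpolation. TGI denotes the concentration required for complete inhibition of growth.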

System: P388/ADR leukemia
Assay: NCI tumour cell line growth inhibition, 48 h

SMILES | TGI
N[C@H](C(=O)O)[C@@H]1CC(Cl)=NO1 | 16.7 µM
CNC(=O)OCc1nc(SSC(C)(C)C)n(C)c1COC(=O)NC | > 28.2 µM
